In patent publication US20250243180A1, “TARGETED PROTEIN DEGRADATION” (Monte Rosa Therapeutics AG, priority 2023, published 2025):
pEC50: −log10 of the molar value. Read-outs that look alike come from different tables or passages of the source.

Tests used:
[1] = biological target: CRBN-DDB1 (Homo sapiens (Human), UniProt Q96SW2); assay: Compound binding to CRBN by HTRF assay
Experimental: Compound activity was monitored in a Homogenous Time-Resolved Fluorescence (HTRF) assay using 1-[5-({2-[2-(2-{[2-(2,6-dioxopiperidin-3-yl)-1,3-dioxo-2,3-dihydro-1H-isoindol-4-yl]oxy}acetamido)ethoxy]ethyl}carbamoyl)pentyl]-3,3-dimethyl-2-[(1E,3E)-5-[(2E)-1,3,3-trimethyl-5-sulfo-2,3-dihydro-1H-indol-2-ylidene]penta-1,3-dien-1-yl]-3H-indol-1-ium-5-sulfonate as a fluorescent probe. Biochemical assays were conducted in Greiner white 384 well HiBase plates (Cat. No 784075-25) in 20 μL total volume. A one pot detection solution of CRBN-DDB1 (2.5 nM), Anti-His Terbium Cryptate Gold (1×, PerkinElmer Cat. #: 61HI2TLB), and Cy5-Thalidomide (100 nM, Tenova Cat.: T52461) was prepared in 20 mM HEPES, 20 mM NaCl, 0.2 mM TCEP, 0.2 mM EDTA, and 0.005% Tween20 was dispensed to each assay plate. Compounds were stored in dry, ambient temperatures at 10 mM. An 11-point, 1:3 dilution series was prepared from 10 mM stock concentrations in Echo-compatible LDV plates. 10 nL of each compound dilution series was dispensed into assays wells using an Echo 650 (Labcyte Inc. USA). 20 nL of 10 mM Lenalidomide was transferred into the active-control wells for the assay and 20 nL of DMSO was transferred into the neutral-control wells. The assay was then allowed to incubate for 30 min at ambient temperature after transferring compound. Plate measurements were taken on a Pherastar FSX (BMG Labtech, Germany) using the HTRF Red filter (Ex. 337 nm, em1: 620 nm, em2: 665 nm) (Flashes: 50, Integration time: 60-400 us, Z-height: 10 mm, Ratio-multiplier: 10,000). The HTRF signal was then subsequently normalized to the neutral and active controls. Analysis and EC50 values were derived using KNIME analytics (KNIME Zurich) transformation and fitting within Collaborative Drug Discovery (Collaborative Drug Discovery USA). Ki was derived from the geometric mean of the EC50 values using the Cheng-Prustoff transformation.

[2] = biological target: NEK7 (Homo sapiens (Human), UniProt Q8TDX7+Q96SW2); assay: NEK7 NanoBiT degradation assay in Cal51 NEK7 NanoBiT cell line; assay type: cell-based; settings: Cal51 NEK7 NanoBiT cells, 24 hours; for Dmax: CAL-51
Experimental: Cal51 NEK7 NanoBiT cell line was generated via CRISPR Knock-In of the HiBiT tag in NEK7 gene and stable infection with a lentivirus carrying LgBiT protein. The cell line was generated in house. For the experiment, cells were plated in 384-well white flat bottom plates (Corning, 3570BC) at 2500 cells per well using Multiflo (BioTek/Agilent) and in 25 μl volume in DMEM experimental medium: DMEM (DMEM, high glucose, HEPES, no phenol red (ThermoFisher Scientific, 21063029) supplemented with 10% FBS (Corning, 35-075-CV), 1% Penicillin/Streptomycin ((ThermoFisher Scientific, 15140-122), and 1% Endurazine (Nano-Glo Endurazine Live Cell Substrate (Promega, N2571)). Cells were incubated for 16 hours at 37° C., 5% CO2 before compound addition. For dose response determination, 2.5 nL of a compound at different concentrations (stock compound concentration range: 10 mM to 0.5 μM, final concentration range inside cell plate: 1 μM to 0.05 nM) were dispensed into the plate using an Echo® 650 liquid handling device (Backman Coulter/Labcyte). Cells were incubated at 37° C., 5% CO2 for 24 hours and then signal was read on a Pherastar FSX using “LUM plus” optic module with 4095 gain and measurement interval time 0.2 seconds.
Analysis was performed in Genedata Screener (Genedata, Basel, CH). Luminescence response (R) was calculated by the formula: response=100*(S−N)/(P−N) where S is the signal of the well, N and P the mean negative and positive control values respectively of the same plate. The luminescence response was then fitted in Genedata using a 4-parameter antagonist logistic fit (hill slope unconstrained, EC50>0, top/bottom unconstrained).

[3] = NEK7 degradation, read-out: NanoBiT Dmax
[4] = NEK7 degradation, read-out: NanoBiT DC50

Chain of NEK7 (Q8TDX7 whole entry): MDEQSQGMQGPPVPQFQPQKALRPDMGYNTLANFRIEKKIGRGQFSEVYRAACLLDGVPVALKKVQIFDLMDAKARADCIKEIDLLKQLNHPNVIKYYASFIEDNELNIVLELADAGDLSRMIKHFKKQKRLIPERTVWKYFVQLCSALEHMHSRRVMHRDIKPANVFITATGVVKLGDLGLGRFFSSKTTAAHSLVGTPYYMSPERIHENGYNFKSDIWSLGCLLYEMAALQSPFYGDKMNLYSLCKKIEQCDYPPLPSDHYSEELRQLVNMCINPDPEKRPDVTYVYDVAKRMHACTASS
Chain of NEK7 (Q96SW2 whole entry): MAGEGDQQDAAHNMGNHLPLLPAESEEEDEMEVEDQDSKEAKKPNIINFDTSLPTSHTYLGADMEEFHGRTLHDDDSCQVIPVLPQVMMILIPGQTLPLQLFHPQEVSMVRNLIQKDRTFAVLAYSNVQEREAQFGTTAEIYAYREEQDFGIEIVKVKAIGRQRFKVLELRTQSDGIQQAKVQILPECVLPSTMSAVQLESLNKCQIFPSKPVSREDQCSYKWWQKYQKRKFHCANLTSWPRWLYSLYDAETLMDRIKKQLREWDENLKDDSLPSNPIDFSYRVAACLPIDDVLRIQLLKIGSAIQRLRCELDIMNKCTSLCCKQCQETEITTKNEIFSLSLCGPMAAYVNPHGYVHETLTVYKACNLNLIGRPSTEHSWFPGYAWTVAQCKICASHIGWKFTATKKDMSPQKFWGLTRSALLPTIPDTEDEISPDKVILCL
Chain of NEK7 (Q16531 2-1140 partner): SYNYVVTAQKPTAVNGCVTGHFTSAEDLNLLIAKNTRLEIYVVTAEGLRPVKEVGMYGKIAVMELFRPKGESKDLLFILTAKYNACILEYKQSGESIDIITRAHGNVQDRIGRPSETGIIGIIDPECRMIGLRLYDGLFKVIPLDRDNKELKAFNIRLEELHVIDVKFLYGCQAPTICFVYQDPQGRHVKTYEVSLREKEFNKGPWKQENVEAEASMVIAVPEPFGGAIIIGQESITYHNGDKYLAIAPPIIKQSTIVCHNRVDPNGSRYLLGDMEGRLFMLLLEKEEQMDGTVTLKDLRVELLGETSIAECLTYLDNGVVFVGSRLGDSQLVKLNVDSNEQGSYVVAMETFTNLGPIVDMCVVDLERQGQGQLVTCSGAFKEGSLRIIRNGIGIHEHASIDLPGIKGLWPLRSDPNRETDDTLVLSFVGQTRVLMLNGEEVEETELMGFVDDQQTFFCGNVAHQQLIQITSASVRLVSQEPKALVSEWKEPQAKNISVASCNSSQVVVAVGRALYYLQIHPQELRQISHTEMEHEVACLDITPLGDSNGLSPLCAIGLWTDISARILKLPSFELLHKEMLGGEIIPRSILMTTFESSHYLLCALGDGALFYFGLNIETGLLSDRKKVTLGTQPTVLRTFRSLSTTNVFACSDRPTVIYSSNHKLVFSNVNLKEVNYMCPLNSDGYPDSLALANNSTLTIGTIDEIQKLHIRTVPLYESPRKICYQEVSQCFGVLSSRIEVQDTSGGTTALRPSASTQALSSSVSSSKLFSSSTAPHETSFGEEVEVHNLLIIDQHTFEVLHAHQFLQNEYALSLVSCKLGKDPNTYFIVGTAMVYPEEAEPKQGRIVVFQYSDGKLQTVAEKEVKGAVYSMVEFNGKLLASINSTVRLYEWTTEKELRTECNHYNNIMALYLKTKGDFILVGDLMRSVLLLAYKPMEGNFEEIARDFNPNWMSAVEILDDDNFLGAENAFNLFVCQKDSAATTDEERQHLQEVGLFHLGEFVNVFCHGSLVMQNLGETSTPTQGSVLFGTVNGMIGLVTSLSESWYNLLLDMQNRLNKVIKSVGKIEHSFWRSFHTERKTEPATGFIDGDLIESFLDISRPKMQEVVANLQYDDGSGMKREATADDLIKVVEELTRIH
Chain of CRBN-DDB1 (Q96SW2 whole entry): as the sequence (Q96SW2 whole entry) above
Chain of CRBN-DDB1 (Q16531 whole entry partner): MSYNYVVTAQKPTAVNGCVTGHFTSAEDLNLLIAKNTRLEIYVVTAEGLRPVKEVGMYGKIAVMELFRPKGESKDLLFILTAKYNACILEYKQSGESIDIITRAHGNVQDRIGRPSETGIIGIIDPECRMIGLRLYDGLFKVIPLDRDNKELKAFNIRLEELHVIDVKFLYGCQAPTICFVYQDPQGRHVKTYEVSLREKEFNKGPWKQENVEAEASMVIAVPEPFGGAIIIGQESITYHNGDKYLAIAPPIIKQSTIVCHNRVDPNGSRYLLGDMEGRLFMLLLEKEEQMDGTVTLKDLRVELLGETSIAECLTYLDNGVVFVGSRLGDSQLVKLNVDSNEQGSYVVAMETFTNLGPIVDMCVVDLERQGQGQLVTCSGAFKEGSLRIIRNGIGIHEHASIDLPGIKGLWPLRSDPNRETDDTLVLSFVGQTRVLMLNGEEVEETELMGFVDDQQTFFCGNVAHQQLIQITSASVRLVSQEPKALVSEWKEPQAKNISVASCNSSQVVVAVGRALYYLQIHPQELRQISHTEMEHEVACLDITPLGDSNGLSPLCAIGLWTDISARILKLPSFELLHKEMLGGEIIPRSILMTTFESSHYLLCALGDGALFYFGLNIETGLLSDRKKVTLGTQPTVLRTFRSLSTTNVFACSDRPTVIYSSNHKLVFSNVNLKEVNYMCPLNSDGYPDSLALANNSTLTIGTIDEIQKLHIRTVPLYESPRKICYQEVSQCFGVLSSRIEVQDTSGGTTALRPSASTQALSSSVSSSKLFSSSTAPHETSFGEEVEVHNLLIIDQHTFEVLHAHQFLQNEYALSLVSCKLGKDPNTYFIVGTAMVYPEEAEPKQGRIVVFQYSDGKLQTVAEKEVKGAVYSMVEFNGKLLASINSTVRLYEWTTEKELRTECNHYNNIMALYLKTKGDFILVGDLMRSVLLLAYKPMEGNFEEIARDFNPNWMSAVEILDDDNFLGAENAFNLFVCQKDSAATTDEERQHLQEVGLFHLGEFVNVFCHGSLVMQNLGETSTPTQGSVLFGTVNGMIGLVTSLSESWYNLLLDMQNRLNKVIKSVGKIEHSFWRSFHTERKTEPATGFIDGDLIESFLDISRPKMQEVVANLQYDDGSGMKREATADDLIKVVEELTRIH

| Structure (SMILES) | pEC50 [1] | pEC50 ([1]; HTRF class, Cereblon binding) | Dmax ([2]; read-out: NEK7 NanoBiT Dmax) [%] | Dmax [2, 3] [%] | DC50 ([2]; read-out: NEK7 NanoBiT DC50) [nM] | DC50 [2, 4] [nM] |
| --- | --- | --- | --- | --- | --- | --- |
| CC(C)(C(=O)NCc1cc(Cl)c(C2CCC(=O)NC2=O)c(Cl)c1)c1cccc(F)c1 (stereo not drawn) [Compound 27] | 7.30 | ≥ 7.00 | 96 | > 75 | 1 | ≤ 100 |
| CC(C)(C(=O)NCc1ccc(C2CCC(=O)NC2=O)c(Cl)c1)c1ccc(C#N)cc1 (stereo not drawn) [Compound 28] | 6.33 | 6.00 to 7.00 | 91 | > 75 | 17 | ≤ 100 |
| CC(C)(C(=O)NCc1cc(Cl)c(C2CCC(=O)NC2=O)c(Cl)c1)c1ccc(C#N)cc1 (stereo not drawn) [Compound 29] | 7.10 | ≥ 7.00 | 97 | > 75 | 0.4 | ≤ 100 |
| CC(C)(C(=O)NCc1ccc(C2CCC(=O)NC2=O)c(Cl)c1)c1ccc(F)cc1 (stereo not drawn) [Compound 30] | 6.46 | 6.00 to 7.00 | 92 | > 75 | 12 | ≤ 100 |
| CC1(C(=O)NCc2cc(Cl)c(C3CCC(=O)NC3=O)c(Cl)c2)COc2ccccc2C1 (stereo not drawn) [Compound 38, N-(3,5-dichloro-4-(2,6-dioxopiperidin-3-yl)benzyl)-3-methylchromane-3-carboxamide] | 7.40 | ≥ 7.00 | 90 | > 75 | 6 | ≤ 100 |

The next lines start with the values.

| pEC50 [1] | pEC50 ([1]; HTRF class, Cereblon binding) | Dmax ([2]; read-out: NEK7 NanoBiT Dmax) [%] | Dmax [2, 3] [%] | DC50 ([2]; read-out: NEK7 NanoBiT DC50) [nM] | DC50 [2, 4] [nM] | Structure (SMILES) |
| --- | --- | --- | --- | --- | --- | --- |
| 6.89 | 6.00 to 7.00 | 93 | > 75 | 6 | ≤ 100 | CC(C)(C(=O)NCc1cc(F)c(C2CCC(=O)NC2=O)c(Cl)c1)c1ccccc1 (stereo not drawn) [Compound 31] |
| 6.96 | 6.00 to 7.00 | 95 | > 75 | 4 | ≤ 100 | CC(C)(C(=O)NCc1cc(Cl)c(C2CCC(=O)NC2=O)c(Cl)c1)c1ccc2c(c1)S(=O)(=O)NC2 (stereo not drawn) [Compound 32, N-(3,5-dichloro-4-(2,6-dioxopiperidin-3-yl)benzyl)-2-(1,1-dioxido-2,3-dihydrobenzo[d]isothiazol-6-yl)-2-methylpropanamide] |
| 6.92 | 6.00 to 7.00 | 96 | > 75 | 2 | ≤ 100 | CC(C)(C(=O)NCc1cc(Cl)c(C2CCC(=O)NC2=O)c(Cl)c1)c1ccc2ncncc2c1 (stereo not drawn) [Compound 33] |
| 6.89 | 6.00 to 7.00 | 77 | > 75 | 19 | ≤ 100 | CC(C)(C(=O)NCc1cc(Cl)c(C2CCC(=O)NC2=O)c(Cl)c1)c1ccc2cnncc2c1 (stereo not drawn) [Compound 35, N-(3,5-dichloro-4-(2,6-dioxopiperidin-3-yl)benzyl)-2-methyl-2-(phthalazin-6-yl)propanamide] |
| 7.10 | ≥ 7.00 | 95 | > 75 | 5 | ≤ 100 | CC(C)(C(=O)NCc1cc(Cl)c(C2CCC(=O)NC2=O)c(Cl)c1)c1cc(F)c(S(N)(=O)=O)c(F)c1 (stereo not drawn) [Compound 36, N-(3,5-dichloro-4-(2,6-dioxopiperidin-3-yl)benzyl)-2-(3,5-difluoro-4-sulfamoylphenyl)-2-methylpropanamide] |
| 7.30 | ≥ 7.00 | 97 | > 75 | 2 | ≤ 100 | CC(C)(C(=O)NCc1cc(Cl)c(C2CCC(=O)NC2=O)c(Cl)c1)c1ccc(S(N)(=O)=O)c(F)c1 (stereo not drawn) [Compound 39, N-(3,5-dichloro-4-(2,6-dioxopiperidin-3-yl)benzyl)-2-(3-fluoro-4-sulfamoylphenyl)-2-methylpropanamide] |
| 7.00 | ≥ 7.00 | 93 | > 75 | 8 | ≤ 100 | CC(C)(C(=O)NCc1cc(Cl)c(C2CCC(=O)NC2=O)c(Cl)c1)c1ccc2c(c1)CNS2(=O)=O (stereo not drawn) [Compound 40] |
